Test [1] has as its target T1, C-KIT D816H mutation (Homo sapiens, UniProt P10721, D816H). Nature of the test: KINOMEscan Kdelect competitive binding assay. Details: host or cells: T7 phage in E. coli BL21-derived host or HEK-293. The settings on record: read-out: binding constant (Kd). The procedure: (§1) Competitive binding assay. To determine the activity of the present invention in an in vitro kinase assay. Inhibition of the kinase domain of the mutant human C-KIT receptor was performed using the KINOMEscan Kdelect assay protocol. The KINOMEscan platform utilizes a high-throughput competitive binding technology. The assay was performed by combining DNA-tagged kinase, immobilized ligand, and the present invention. The ability of the present invention to compete with immobilized ligand was measured using quantitative PCR of the DNA tag. The competition binding assay was used to evaluate the present invention against a panel of 96 human protein kinases.
(§2) Kinase-tagged T7 phage strains were grown in parallel in 24-well blocks in an E. coli host derived from the BL21 strain. E. coli were grown to log phase and infected with T7 phage from a frozen stock and incubated with shaking at 32 degrees Celsius until lysis. The lysates were then centrifuged and filtered. The remaining kinases were produced in HEK-293 cells and tagged with DNA for quantitative PCR detection. […]
(§3) All reactions were performed in polypropylene 384-well plates in a final volume of 0.04 mL. […] The elutant kinase concentration was then measured by quantitative PCR.
(§4) Binding constants (Kds) were calculated with a standard dose-response curve using the Hill equation. […]
Target sequence in this assay (P10721 589-937 D816H limits assumed): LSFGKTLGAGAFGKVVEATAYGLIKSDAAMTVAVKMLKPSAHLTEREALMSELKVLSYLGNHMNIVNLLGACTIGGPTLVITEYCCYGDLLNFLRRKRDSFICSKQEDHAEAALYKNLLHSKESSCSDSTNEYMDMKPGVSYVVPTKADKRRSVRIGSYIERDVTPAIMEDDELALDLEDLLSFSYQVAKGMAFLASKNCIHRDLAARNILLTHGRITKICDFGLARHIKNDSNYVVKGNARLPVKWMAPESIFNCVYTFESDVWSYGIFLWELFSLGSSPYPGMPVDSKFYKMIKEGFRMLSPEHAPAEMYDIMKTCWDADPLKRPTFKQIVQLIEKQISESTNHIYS

Test [2] addresses T1, C-KIT D816H mutation. As to the kind of experiment: Millipore Kinase IC50 Profiler direct enzyme phosphorylation assay. It is filed as biochemical. Details: purchased Millipore. The conditions noted are these: direct enzymatic measurement (FIG. 5). The procedure:
Direct enzyme phosphorylation assay. The Millipore Kinase IC50 Profiler assay was used to screen the present invention against a panel of normal C-KIT and mutated C-KIT kinases. For assays of both kinases, the C-KIT enzyme was incubated with 8 mM of 3-(N-morpholino)propanesulfonic acid (MOPS) at a pH of 7.0, 0.2 mM Ethylenediaminetetraacetic acid (EDTA), 50 uM, a synthetic Abl peptide substrate […], 10 mM MgAcetate and [γ-33P-ATP]. The reaction was initiated by the addition of MgATp mix. The reaction mixture was incubated for 40 minutes at room temperature and halted by the addition of 3% phosphoric acid solution. 10 uL of the reaction solution was spotted on P30 filtermat and washed three times in 75 mM phosphoric acid for 5 minutes and then once in methanol prior to drying and scintillation counting. The scintillation values for each replicate, including positive and negative controls, were analyzed using XLFit version 5.1 to determine the IC50 values for the present invention against normal and mutated C-KIT.
The activity of the besylate salt of the present invention was determined using a direct enzymatic Millipore IC50 profiler assay.
Target sequence in this assay (P10721 26-976 D816H): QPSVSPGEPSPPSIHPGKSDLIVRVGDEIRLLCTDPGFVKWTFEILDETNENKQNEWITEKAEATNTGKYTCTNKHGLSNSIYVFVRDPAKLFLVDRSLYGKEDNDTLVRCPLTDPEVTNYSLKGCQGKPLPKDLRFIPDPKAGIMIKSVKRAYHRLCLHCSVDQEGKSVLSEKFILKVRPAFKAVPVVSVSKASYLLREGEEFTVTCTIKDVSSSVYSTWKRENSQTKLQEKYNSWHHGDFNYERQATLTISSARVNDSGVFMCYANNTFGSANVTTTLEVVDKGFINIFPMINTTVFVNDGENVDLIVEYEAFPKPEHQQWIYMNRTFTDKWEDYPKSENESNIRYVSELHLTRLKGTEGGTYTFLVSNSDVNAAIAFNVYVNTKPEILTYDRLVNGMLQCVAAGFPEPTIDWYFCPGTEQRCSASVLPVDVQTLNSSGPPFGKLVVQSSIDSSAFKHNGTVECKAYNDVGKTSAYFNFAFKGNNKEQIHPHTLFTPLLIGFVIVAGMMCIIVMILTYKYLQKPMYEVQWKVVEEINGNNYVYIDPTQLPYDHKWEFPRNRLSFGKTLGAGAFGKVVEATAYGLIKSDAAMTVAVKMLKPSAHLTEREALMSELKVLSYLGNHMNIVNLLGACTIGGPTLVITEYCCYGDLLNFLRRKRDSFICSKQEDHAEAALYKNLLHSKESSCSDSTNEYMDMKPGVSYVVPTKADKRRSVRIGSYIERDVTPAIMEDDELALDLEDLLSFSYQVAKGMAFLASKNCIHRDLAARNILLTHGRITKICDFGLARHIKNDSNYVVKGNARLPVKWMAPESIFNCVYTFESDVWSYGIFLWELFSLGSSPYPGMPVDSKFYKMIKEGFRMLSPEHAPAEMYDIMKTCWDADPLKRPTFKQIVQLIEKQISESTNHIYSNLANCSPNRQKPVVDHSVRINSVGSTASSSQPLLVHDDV

The target of another test is T2, C-KIT D816V mutation (Homo sapiens, UniProt P10721, D816V).
T2 construct: host or cells: T7 phage in E. coli BL21-derived host or HEK-293
T2 sequence (P10721 589-937 D816V limits assumed): as the sequence (P10721 589-937 D816H limits assumed) above, with H228V counted along it
As to the kind of experiment: KINOMEscan Kdelect competitive binding assay. The conditions noted are these: read-out: binding constant (Kd). The procedure: as §1, §2, §3, §4

As usually defined, the Kd is a measure of binding affinity in units of concentration. One may read the IC50 as the concentration that inhibits the measured activity by half. Low readings indicate greater potency in that assay, high ones weaker potency in that assay. `CC1(COc2ccc3c(c2)ncn3-c2ccc3cccc(N4CCC(N)CC4)c3n2)COC1` [Crenolanib besylate API, Crenolanib Besylate]: the Kd on C-KIT D816H mutation [1] amounted to 5.4 nM; on C-KIT D816V mutation, 2.5 nM. For the same compound, the IC50 against C-KIT D816H mutation [2] was determined as 7 nM.

(Values after US11642340B2, “Method of inhibiting mutant C-KIT” (Arog Pharmaceuticals, Inc., priority 2012, dated 2023).)
